Data as given in patent publication US8097650B2, “Method of treating a condition associated with phosphorylation of TASK-1” (The Trustees of Columbia University In The City of New York, priority 2005, dated 2012).

Legend:
TREK-1 [1] = molecular target: T1, TREK-1 (Homo sapiens, UniProt O95069); experiment: Heterologous expression of TREK-1, lipoxygenase products; format: cell-based; parameters: expressed in transfected cells
T1 sequence (O95069 1-426): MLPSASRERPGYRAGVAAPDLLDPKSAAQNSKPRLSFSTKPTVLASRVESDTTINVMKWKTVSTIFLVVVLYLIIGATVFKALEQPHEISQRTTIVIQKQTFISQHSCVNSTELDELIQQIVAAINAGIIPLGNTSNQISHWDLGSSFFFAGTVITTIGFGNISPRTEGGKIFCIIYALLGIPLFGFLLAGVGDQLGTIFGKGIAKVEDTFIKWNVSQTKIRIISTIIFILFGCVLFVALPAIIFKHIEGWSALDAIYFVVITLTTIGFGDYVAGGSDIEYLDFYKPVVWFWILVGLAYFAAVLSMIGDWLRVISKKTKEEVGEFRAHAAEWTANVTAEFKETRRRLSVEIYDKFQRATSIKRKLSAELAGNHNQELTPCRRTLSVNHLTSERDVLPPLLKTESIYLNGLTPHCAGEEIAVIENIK
Description: In heterologous expression studies of one 2PK, TREK-1, it has been observed that a divergence in the sensitivity of the channel to various lipoxygenase products exists. […] Altered channel function may underlie some of the aberrant regulation of cell proliferation characteristic of the carcinoma cells. In addition, it has been observed that Northern analysis of normal prostate tissue show expression of TASK-1, TASK-3 and TREK-1 in prostate (Duprat F et al., […] EMBO J. 16:5464-71; Mu D et al., (2003) Cancer Cell, 3:297-302; Medhurst A D et al., (2001) Brain Res, 86:101-14).

[2] = system: murine ventricular myocytes; experiment: Arrhythmias induced by PKCε activator peptide in murine ventricular myocytes, rescue by TREK-1 activators; format: cell-based, mouse; conditions: AA 100 nM or tyrphostin 47 50 μM from 1 min after rupture
Experimental: FIGS. 23A-23D. Activation of TREK-1 can overcome arrhythmias induced by inhibition of TASK-1. Isolated murine ventricular myocytes were studied in current clamp mode and paced at 1 Hz. The cells were studied in regular Tyrode's, pH 7.4. Recordings were begun immediately after rupture and continued for 12-15 min, with the 5.5 min time point illustrated. A PKCε-specific activator peptide (100 nM) was included in the patch pipette, which lead to inhibition of TASK-1 current and repolarization abnormalities (23A and 23B).
FIG. 25. Activation of TREK-1 can overcome arrhythmias induced by inhibition of TASK-1. Isolated murine ventricular myocytes were studied in current clamp mode and paced at 1 Hz. The cells were studied in regular Tyrode's, pH 7.4. Recordings were begun immediately after rupture and continued for 12-15 min. A PKCε-specific activator peptide (100 nM) […] or a scrambled control peptide (100 nM) (25A) was included in the patch pipette. After the activator peptide had induced repolarization abnormalities (25B left panel), a TREK-1 activator, ONO-RS-082 (100 nM) was added to the superfusion.
Isolated murine ventricular myocytes were studied in current clamp mode and paced at 1 Hz. The cells were studied in regular Tyrode's, pH 7.4, and recordings were begun immediately after rupture and continued for 12-15 min, with the 5.5 min timepoint illustrated. As shown in FIGS. 23A and 23B, a PKCε-specific activator peptide (100 nM) was included in the patch pipette which lead to inhibition of TASK-1 current and repolarization abnormalities.

TREK-1 [3] = molecular target: T1, TREK-1; experiment: Human TREK-1 current in CHO cells (ramp clamp); format: cell-based; parameters: expressed in transfected cells; host or cells: CHO cells; conditions: +50 mV; riluzole 100 nM, anisomycin 3.7 μM, CDC 10 μM, tyrphostins 10 μM
Experimental: FIG. 18. Structure-activity analysis of activators of human TREK-1 channel. Human TREK-1 was expressed in CHO cells and current was measured during a ramp protocol (−120 to +50 mV in 6 s). The activation of the current at +50 mV in the presence of various putative TREK-1 activators was measured and summarized in the bar graph as % activation over basal. Various endogenous lipids, most related to lipoxygenase metabolites of either arachidonic acid or linoleic acid, were tested (all at 100 nM).
FIG. 21. CHO cells (hTREK-1, hTASK-1) or HEK cells (mTRAAK) were co-transfected with plasmids encoding one of the two pore domain channels and GFP using the GeneJammer reagent. After 48-60 h, the expressed current was measured using a ramp protocol while the cells were perfused with regular Tyrode's solution containing varying concentrations of ONO-RS-082 (range of concentration from 10 nM to 500 μM as noted in FIG. 21) until a steady state was reached. Each cell was exposed to only one concentration of drug. Panel A: TREK-1 current was determined using a ramp clamp, and the percent increase induced by ONO-RS-082 was measured at the most positive imposed voltage (n≧5). The EC50 for activation was around 3 μM and the basal and ONO-activated current densities are noted. Panel B: TASK-1 current was determined using a ramp clamp in Tyrode's solution at pH=8 and the percent increase induced by ONO-RS-082 was measured at the most positive imposed voltage (n≧4). The EC50 was around 8 μM and the basal and ONO-activated current densities are noted. Panel C: TRAAK current was determined using a ramp clamp, and the percent increase induced by ONO-RS-082 was measured at the most positive imposed voltage (n≧4). The EC50 was around 0.9 μM and the basal and ONO-activated current densities are noted.
Subsequently, the structure-activity analysis of activators of human TREK-1 channel was determined. […] The activation of the current at +50 mV in the presence of various putative TREK-1 activators was measured and summarized in the bar graph as % activation over basal.
CHO cells were transfected with a plasmid encoding human TREK-1 and the current was studied by patch clamp. The current-voltage relation was determined using a ramp protocol that went from −130 mV to +40 mV in 6 s (after correction for the junction potential). […] This is typical of 7 cells.

murine TASK-1 = experiment: TASK-1 current expressed in CHO cells (whole-cell ramp clamp); format: cell-based, mouse; conditions: peptide 100 nM in pipette, PMA 100 nM; for effect of peptide on C-PAF and PMA inhibition of TASK-1 current: C-PAF 185 nM
Experimental: The TASK-1 clone (provided by Professor Y. Kurachi, Osaka University) was co-transfected in CHO cells with CD8 plasmid using Lipofectamine Plus (Invitrogen) according to the manufacturer's instructions. 48 h later cells were transferred to the electrophysiology chamber and anti-CD8 coated beads (Dynal Biotech) were added to identify CD8 expressing cells. Expressing cells were voltage clamped using a ramp clamp (see below). CHO cells were used in these experiments, in part, because they express endogenous PAFR.
Chinese hamster ovary cells (CHO) were grown in F-12 medium supplemented with 10% fetal bovine serum. Twenty-four hours prior to transfection, cells were seeded into 6 well plates at 80-90% of confluence. Transfections were carried out with the GeneJammer transfection reagent (Stratagene) according to the manufacturer's instructions. Briefly, cells were washed with PBS and their medium replaced with supplemented F-12 medium (900 μl/well). For each well, GeneJammer (6 μl) was incubated with Opti-MEM (90 μl) followed by the addition of DNA (1 μg). This mixture was then added to the wells and 3 h later an additional 2 ml of supplemented F-12 medium was added. After incubating overnight, the cells were washed and their medium replaced.
Cells were either co-transfected with pCMV-TASK1 together with pEGFP-C1 (1 μg total, 3:1) or transfected with […] or T381A-pTIE (1 μg). 48 h after the transfection the cells were checked under the microscope for green fluorescence. Approximately 20% of the cells were positive for EGFP and these were then used for patch-clamp experiments. Due to the culture-to-culture variability in the expression of TASK-1 current, most comparisons were made on matched controls from the same transfection. Summary results were then obtained by pooling data from several different culture preparations.
(§1) The myocyte suspension or the coverslip with CHO cells was placed into a perfusion chamber, mounted on the stage of an inverted microscope. Unless otherwise indicated, CHO cells were superfused at room temperature with standard external Tyrode's buffer, containing (mM): NaCl, 140; KCl, 5.4; CaCl2, 1; MgCl2, 1; HEPES, 5; glucose, 10; adjusted to pH 7.4. Recordings were begun after the current reached a stable baseline (usually 3 to 4 min after initial cell rupture). In myocytes, TASK-1 current is small and exists in the presence of numerous larger K^+ currents. In order to increase the inward component of TASK-1 current and to block other potassium currents in myocytes, a modified high K^+ external solution (modified Tyrode's) was used to reduce outward rectification of TASK-1 current. The composition of this solution-was (in mM): NaCl, 100; KCl, 50; CaCl2, 1; MgCl2, 1; HEPES, 5; glucose, 10; tetraethylammonium (TEA), 1; CsCl, 5; adjusted to pH 7.4. Membrane potential and current were measured in the whole cell configuration using borosilicate glass pipettes with a tip resistance between […] and filled with a pipette solution containing (mM): aspartic acid, 130; KOH, 146; NaCl, 10; CaCl2, 2; EGTA, 5; HEPES, 10; MGATP, 2; pH 7.2. The stock solutions of C-PAF and of the PKC inhibitor, bisindolylmaleimide (BIM-I; Calbiochem), were prepared in water and diluted to the final concentrations in Tyrode's or modified Tyrode's, as appropriate. The PKC activator, PMA, was prepared in DMSO and then diluted in Tyrode's. […] Myocytes treated with the peptides were monitored continuously beginning immediately after rupture to detect the occurrence of any arrhythmias during dialysis of the peptide. Application of C-PAF to cells treated with the inhibitor peptide was started after the peptide had been permitted to dialyse into the cell (8-10 min after rupture for CHO or 10-12 min after rupture for myocytes).
The current and the voltage protocols were generated using Clampex 8.0 software applied by means of an Axopatch 200-B and a Digidata 1200 interface (Axon Instruments). […]

[4] = system: mouse ventricular myocytes; experiment: Repolarization abnormalities in mouse ventricular myocytes paced at 1 Hz with PKCε peptides; format: cell-based
Experimental: (§2) Mouse ventricular myocytes were isolated using a retrograde coronary perfusion method previously published (Kuznetsov V et al. (1995) Circ Res 76: 40-52). All the experiments were carried out according to the guidelines issued by the IACUC of Columbia University. Adult mice 2 or 3 months old, were anaesthetized with a xylazine and ketamine mix and heparinized, the heart was quickly removed and the ascending aorta was connected to the outlet of a Langendorff column and perfused with 20-25 ml of a buffer solution (37° C.) containing (mM):NaCl, 112; KCl, 5.4; NaHCO3, 4.2; MgCl2, 1.6; HEPES, 20; glucose, 5.4; NaH2PO4, 1.7; taurine, 10; L-glutamine, 4.1; MEM amino acids solution, 2%; MEM vitamin solution, 1%; adjusted to pH 7.4, and equilibrated with 100% O2. Next, the heart was perfused with an enzyme solution containing collagenase (0.2 mg/ml; Worthington Type II) and trypsin (0.04 mg/ml) at 35° C. for 10-12 min. After this perfusion, the atria were removed and the ventricles minced and transferred to a 50 ml flask with an enzyme solution containing collagenase (0.45 mg/ml), trypsin (0.08 mg/ml), Ca^2+ (0.75 mM) and bovine serum albumin (BSA; 4.8 mg/ml). The flask was shaken vigorously for 5-10 min at 32° C. before the supernatant was removed and the cells were collected by centrifugation, this operation was repeated two or three times and additional disaggregated cells were collected. After centrifugation, the myocytes were resuspended in the buffer solution containing Ca^2+ (0.75 mM) and BSA and stored at room temperature until use. Rod-shaped, Ca^2+-tolerant myocytes, obtained with this procedure, were used within 6 h of dissociation. Measurements were performed only on quiescent myocytes with clear striations
as §1
The current and the voltage protocols were generated using Clampex 8.0 software applied by means of an Axopatch 200-B and a Digidata 1200 interface (Axon Instruments). In current clamp mode, for recording action potentials, the signals were filtered at 1 KHz (low pass Bessel filter) and acquired at a sampling rate of 5 KHz. […]

TASK-1 = experiment: C-PAF-sensitive TASK-1 current in mouse ventricular myocytes dialyzed with PKCε peptides; format: cell-based; conditions: for effect of peptide on ability of C-PAF to reduce TASK-1 current: held at −10 mV, peptide 100 nM in pipette, C-PAF 185 nM
Experimental: as §2
The myocyte suspension or the coverslip with CHO cells was placed into a perfusion chamber, mounted on the stage of an inverted microscope. Unless otherwise indicated, CHO cells were superfused at room temperature with standard external Tyrode's buffer, containing (mM): NaCl, 140; KCl, 5.4; CaCl2, 1; MgCl2, 1; HEPES, 5; glucose, 10; adjusted to pH 7.4. Recordings were begun after the current reached a stable baseline (usually 3 to 4 min after initial cell rupture). In myocytes, TASK-1 current is small and exists in the presence of numerous larger K^+ currents. […] Membrane potential and current were measured in the whole cell configuration using borosilicate glass pipettes with a tip resistance between […] and filled with a pipette solution containing (mM): aspartic acid, 130; KOH, 146; NaCl, 10; CaCl2, 2; EGTA, 5; HEPES, 10; MGATP, 2; pH 7.2. […] Myocytes treated with the peptides were monitored continuously beginning immediately after rupture to detect the occurrence of any arrhythmias during dialysis of the peptide. […]

CCCCC[C@H](O)/C=C/C=C\CCCCCCCC(=O)O [13-HODE, 13(S)-hydroxyoctadecadienoic acid]
effect on TREK-1 current (TREK-1 [1]): reduces current

CCCCCC(/C=C/C=C\C/C=C\C/C=C\CCCC(=O)O)OO (stereo not shown) [15-HPETE]
effect on TREK-1 current (TREK-1 [1]): increases TREK-1 current

CCCCC/C=C\C/C=C\C/C=C\C/C=C\CCCC(=O)O [arachidonic acid]
arrhythmias induced by PKCε activator peptide during drug superfusion [2]: fewer arrhythmias

Nc1nc2ccc(OC(F)(F)F)cc2s1 [riluzole]
type of activation of human TREK-1 current (TREK-1 [3]): slow-onset activators

N#C/C(=C\c1ccc(O)c(O)c1)C(N)=S [tyrphostin 47]
arrhythmias induced by PKCε activator peptide during drug superfusion [2]: fewer arrhythmias

EAVSLKPT [PKCε-inhibitor peptide]
effect of peptide on PMA-sensitive current (murine TASK-1): completely blocked
effect of peptide on C-PAF and PMA inhibition of TASK-1 current (murine TASK-1): blocked the effect
repolarization abnormalities ([4]; C-PAF, PKCε-specific inhibitor peptide 100 nM in pipette): completely absent
effect of peptide on ability of C-PAF to reduce TASK-1 current (TASK-1): significantly inhibited
C-PAF-sensitive current in the presence of peptide (TASK-1; ramp −50 to +30 mV, modified Tyrode's, inhibitor peptide 100 nM): abolished

LSETKPAV [scrambled peptide]
effect of peptide on C-PAF and PMA inhibition of TASK-1 current (murine TASK-1): no effect
cells with repolarization abnormalities / abnormal automaticity ([4]; peptide in pipette, no added C-PAF): 2 of 10
effect of peptide on ability of C-PAF to reduce TASK-1 current (TASK-1): had no effect
